In patent US8546443B2, “Benzylic oxindole pyrimidines” (Boehringer Ingelheim International GmbH, priority 2010, dated 2013):

Tests used:
[1] = target: T1, cytoplasmic kinase domain of human IGF-1R (IGF-1R-GST) (Homo sapiens, UniProt P08069); assay: Insulin-like growth factor-1 receptor (IGF-1R) kinase assay (DELFIA); type: biochemical; settings: IGF-1R-GST kinase activity, read-out: IGF1R IC50
T1 construct: cytoplasmic kinase domain of human IGF-1R (amino acids 964-1370); GST (glutathione-S-transferase); made in house; host or cells: High Five insect cells (Invitrogen)
Summary of the method: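 GST-tagged IGF-1R cytoplasmic kinase domain phosphorylates pEY with biotinylated pEY for 40 min at RT; EDTA stop. Product captured on streptavidin, detected with europium anti-phosphotyrosine antibody by DELFIA time-resolved fluorescence; IC50 from inhibition curves.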

[2] = tested on: TC-71 (Ewing's sarcoma) cells; assay: Cell proliferation assay, TC-71 (Alamar Blue); type: cell-based; settings: 72 h with compound, EC50 ranges as class symbols
Method: Cell Proliferation Assays
Compounds were tested for their anti-proliferative effects in the TC-71 (Ewing's sarcoma) and HCT 116 (colorectal carcinoma) cancer cell lines in vitro. Published scientific data has described that interference with the Insulin-like Growth Factor-1 Receptor (IGF-1R) signaling pathway reduces the proliferation of TC-71 cells. Therefore TC-71 cells served as a positive control cell line for monitoring the activity of compounds against IGF-1R-mediated cell proliferation. […] Therefore the HCT 116 cell line served as a negative control.
2000 TC-71 cells or 1000 HCT 116 cells were seeded per well in 180 μL IMDM+10% foetal calf serum (FCS)+ penicillin/streptomycin into 96-well microtitre plates. The plates were placed in a cell culture incubator (37° C. in a humidified atmosphere of […]/5 CO2) overnight. The following day, serial dilutions of compounds, prepared in duplicates, were transferred onto the cell layers (controls without compound). The cells were cultivated for a further 72 h in the cell culture incubator. 20 μL of Alamar Blue™ (Serotec Ltd, Düsseldorf, Germany) was added to each well and the plates incubated for 7 h in the cell culture incubator. Fluorescence (extinction wavelength of 544 nm and emission at 590 nm) was then measured and the normalized data fitted by iterative calculation with a sigmoidal curve analysis program (Graph Pad Prism) with a variable Hill slope to determine the IC50 values.

T1 sequence (P08069 964-1367 limits assumed): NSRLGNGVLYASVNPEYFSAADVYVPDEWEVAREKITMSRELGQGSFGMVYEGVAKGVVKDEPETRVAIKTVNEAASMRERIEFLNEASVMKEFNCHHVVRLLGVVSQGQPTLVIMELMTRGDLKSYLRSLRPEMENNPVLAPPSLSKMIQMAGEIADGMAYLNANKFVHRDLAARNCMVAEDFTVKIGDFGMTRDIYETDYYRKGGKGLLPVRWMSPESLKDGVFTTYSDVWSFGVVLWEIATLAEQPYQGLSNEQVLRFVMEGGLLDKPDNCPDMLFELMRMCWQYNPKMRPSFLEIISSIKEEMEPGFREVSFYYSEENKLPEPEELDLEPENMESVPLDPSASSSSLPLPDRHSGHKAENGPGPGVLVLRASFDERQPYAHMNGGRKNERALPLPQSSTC

| IC50 [1] | EC50 [2] | Compound |
| --- | --- | --- |
| 1 nM | < 50 nM | Cc1cc(N2CCN(C)CC2)ccc1Nc1ncc(C(F)(F)F)c(NCc2cccc3c2C(C)(C)C(=O)N3)n1 [Example I-307] |
| 0.8 nM | < 50 nM | Cc1cc(C2CCN(C)CC2)ccc1Nc1ncc(C(F)(F)F)c(NCc2cccc3c2C(C)(C)C(=O)N3)n1 [Example I-308] |
| 1 nM | < 50 nM | Cc1cc(C2CCN(CC(C)(C)O)CC2)ccc1Nc1ncc(C(F)(F)F)c(NCc2cccc3c2C(C)(C)C(=O)N3)n1 [Example I-309] |
| 5 nM | 50 to 250 nM | CC(C)(O)CN1CCC(c2ccc(Nc3ncc(C(F)(F)F)c(NCc4cccc5c4C(C)(C)C(=O)N5)n3)c(OC(F)F)c2)CC1 [Example I-310] |
| 15 nM | 50 to 250 nM | Cc1cc(Nc2ncc(C(F)(F)F)c(NCc3cccc4c3C(C)(C)C(=O)N4)n2)c(F)cc1C1CCN(CC(C)(C)O)CC1 [Example I-311] |
| 27 nM | 50 to 250 nM | Cc1cc(C2CCN(CC(C)(C)O)CC2)c(C)cc1Nc1ncc(C(F)(F)F)c(NCc2cccc3c2C(C)(C)C(=O)N3)n1 [Example I-312] |
| 0.5 nM | < 50 nM | Cc1c(Nc2ncc(C(F)(F)F)c(NCc3cccc4c3C(C)(C)C(=O)N4)n2)ccc(C2CCN(CC(C)(C)O)CC2)c1C [Example I-313] |
| 5 nM | 50 to 250 nM | CCc1cc(C2CCN(CC(C)(C)O)CC2)ccc1Nc1ncc(C(F)(F)F)c(NCc2cccc3c2C(C)(C)C(=O)N3)n1 [Example I-314] |
| 6 nM | < 50 nM | Cc1cc(N2CCN(CC(C)(C)O)CC2)ccc1Nc1ncc(Br)c(NCc2cccc3c2C(C)(C)C(=O)N3)n1 [Example I-317] |
| 2 nM | < 50 nM | Cc1cc([C@H]2CCCN(CC(C)(C)O)C2)ccc1Nc1ncc(Br)c(NCc2cccc3c2C(C)(C)C(=O)N3)n1 [Example I-319] |
| 0.9 nM | < 50 nM | Cc1cc([C@@H]2CCCN(CC(C)(C)O)C2)ccc1Nc1ncc(Br)c(NCc2cccc3c2C(C)(C)C(=O)N3)n1 [Example I-320] |
| 2 nM | < 50 nM | COc1cc(N2CCN(CC(C)(C)O)CC2)ccc1Nc1ncc(Br)c(NCc2cccc3c2C(C)(C)C(=O)N3)n1 [Example I-321] |
| 0.9 nM | < 50 nM | COc1cc(C2CCN(CC(C)(C)O)CC2)ccc1Nc1ncc(Br)c(NCc2cccc3c2C(C)(C)C(=O)N3)n1 [Example I-323] |
| 0.1 nM | < 50 nM | Cc1cc(Nc2ncc(Br)c(NCc3cccc4c3C(C)(C)C(=O)N4)n2)ccc1C1CCN(CC(C)(C)O)CC1 [Example I-324] |
| 2 nM | 50 to 250 nM | Cc1cc(C2CCN(CC(O)C(F)(F)F)CC2)ccc1Nc1ncc(Cl)c(NCc2cccc3c2C(C)(C)C(=O)N3)n1 (centres unmarked) [Example I-326] |
| 3 nM | < 50 nM | Cc1cc(N2CCN(C)CC2)ccc1Nc1ncc(Cl)c(NCc2cccc3c2C(C)(C)C(=O)N3)n1 [Example I-330] |
| 1 nM | < 50 nM | COc1cc(C2CCN(CC(C)(C)O)CC2)ccc1Nc1ncc(Cl)c(NCc2cccc3c2C(C)(C)C(=O)N3)n1 [Example I-331] |
| 1 nM | < 50 nM | Cc1cc(C2CCN(C)CC2)ccc1Nc1ncc(Cl)c(NCc2cccc3c2C(C)(C)C(=O)N3)n1 [Example I-332] |
| 0.4 nM | < 50 nM | Cc1cc(Nc2ncc(Cl)c(NCc3cccc4c3C(C)(C)C(=O)N4)n2)ccc1C1CCN(CC(C)(C)O)CC1 [Example I-334] |
| 3 nM | < 50 nM | COc1cc(N2CCN(CC(C)(C)O)CC2)ccc1Nc1ncc(Cl)c(NCc2cccc3c2C(C)(C)C(=O)N3)n1 [Example I-335] |

| IC50 [1] | EC50 [2] | Compound |
| --- | --- | --- |
| 4 nM | 50 to 250 nM | Cc1cc(N2CCN(CC(C)(C)O)CC2)ccc1Nc1ncc(Cl)c(NCc2cccc3c2C(C)(C)C(=O)N3)n1 [Example I-336] |
| 9 nM | 250 to 3000 nM | Cc1cc(Nc2ncc(Cl)c(NCc3cccc4c3C(C)(C)C(=O)N4)n2)c(F)cc1C1CCN(CC(C)(C)O)CC1 [Example I-337] |
| 2.1 nM | < 50 nM | Cc1c(Nc2ncc(Cl)c(NCc3cccc4c3C(C)(C)C(=O)N4)n2)ccc(C2CCN(CC(C)(C)O)CC2)c1C [Example I-339] |
| 11 nM | 50 to 250 nM | CC(C)(O)CN1CCC(c2ccc(Nc3ncc(Cl)c(NCc4cccc5c4C(C)(C)C(=O)N5)n3)c(OC(F)(F)F)c2)CC1 [Example I-340] |
| 0.9 nM | < 50 nM | CC(C)(O)CN1CCC(c2ccc(Nc3ncc(Cl)c(NCc4cccc5c4C(C)(C)C(=O)N5)n3)c3c2OCO3)CC1 [Example I-341] |
| 3 nM | < 50 nM | CC(C)(O)CN1CCC(c2ccc(Nc3ncc(Cl)c(NCc4cccc5c4C(C)(C)C(=O)N5)n3)c(OC(F)F)c2)CC1 [Example I-342] |
| 0.8 nM | < 50 nM | COCCN1CCC(c2ccc(Nc3ncc(C(F)(F)F)c(NCc4cccc5c4C(C)(C)C(=O)N5)n3)c(C)c2)CC1 [Example I-352] |
| 2 nM | < 50 nM | COCCN1CCN(c2ccc(Nc3ncc(C(F)(F)F)c(NCc4cccc5c4C(C)(C)C(=O)N5)n3)c(OC)c2)CC1 [Example I-353] |
| 0.5 nM | 250 to 3000 nM | Cc1cc(C2CCN(CCO)CC2)ccc1Nc1ncc(C(F)(F)F)c(NCc2cccc3c2C(C)(C)C(=O)N3)n1 [Example I-355] |
| 0.3 nM | < 50 nM | COCCN1CCC[C@@H](c2ccc(Nc3ncc(Br)c(NCc4cccc5c4C(C)(C)C(=O)N5)n3)c(C)c2)C1 [Example I-362] |
| 2 nM | 50 to 250 nM | COCCN1CCC[C@H](c2ccc(Nc3ncc(Br)c(NCc4cccc5c4C(C)(C)C(=O)N5)n3)c(C)c2)C1 [Example I-363] |
| 3 nM | < 50 nM | CCc1cc(C2CCN(CCOC)CC2)ccc1Nc1ncc(Br)c(NCc2cccc3c2C(C)(C)C(=O)N3)n1 [Example I-367] |
| 2 nM | < 50 nM | COCCN1CCN(c2ccc(Nc3ncc(Br)c(NCc4cccc5c4C(C)(C)C(=O)N5)n3)c(OC)c2)CC1 [Example I-369] |
| 11 nM | 50 to 250 nM | COc1cc(C2CCN(CC#N)CC2)ccc1Nc1ncc(Cl)c(NCc2cccc3c2C(C)(C)C(=O)N3)n1 [Example I-374] |
| 9 nM | < 50 nM | Cc1cc(C2CCN(CC#N)CC2)ccc1Nc1ncc(Cl)c(NCc2cccc3c2C(C)(C)C(=O)N3)n1 [Example I-375] |
| 0.6 nM | < 50 nM | COCCN1CCC(c2ccc(Nc3ncc(Cl)c(NCc4cccc5c4C(C)(C)C(=O)N5)n3)cc2C)CC1 [Example I-376] |
| 0.9 nM | < 50 nM | Cc1cc(C2CCN(CC(C)(C)O)CC2)ccc1Nc1ncc(Cl)c(NCc2cccc3c2C(C)(C)C(=O)N3)n1 [Example I-377] |
| 6 nM | 50 to 250 nM | CCc1cc(C2CCN(CC(C)(C)O)CC2)ccc1Nc1ncc(Cl)c(NCc2cccc3c2C(C)(C)C(=O)N3)n1 [Example I-378] |
| 4 nM | 50 to 250 nM | CCc1cc(C2CCN(CCOC)CC2)ccc1Nc1ncc(Cl)c(NCc2cccc3c2C(C)(C)C(=O)N3)n1 [Example I-385] |
| 3 nM | < 50 nM | COCCN1CCN(c2ccc(Nc3ncc(Cl)c(NCc4cccc5c4C(C)(C)C(=O)N5)n3)c(OC)c2)CC1 [Example I-386] |
